Test results reported in article PMC4757451 (Biochemistry, 2015).

Experiments:
CYP3A4 [1] = target: T1, CYP3A4 (Homo sapiens, UniProt P08684, S18F); assay: Product formation; conditions: for Product formation rate after second substrate binding: intermediate with two molecules bound ([20]/[02]); for CBZ Product Rate / PGS Product Rate: mixed substrate global fit
CYP3A4 [2] = target: T1, CYP3A4; assay: Steady-state NADPH oxidation by CYP3A4 Nanodiscs with CPR; assay type: biochemical

SMILES | Product formation rate with only one substrate molecule bound (CYP3A4 [1]; first binding intermediate, fitted parameters, in words) | Product formation rate after third binding event (CYP3A4 [1]; intermediate with three molecules bound ([03]), pure substrate) [min⁻¹] | Product formation rate after second substrate binding (CYP3A4 [1]; pure substrate) [min⁻¹] | CBZ Product Rate (CYP3A4 [1]; mixed intermediate [11]) | CBZ product formation rate (CYP3A4 [1]; mixed intermediate [12]) [min⁻¹] | CBZ Product Rate (CYP3A4 [1]; mixed intermediate [12]) | CBZ product formation rate (CYP3A4 [1]; mixed intermediate [21]) [min⁻¹] | CBZ Product Rate (CYP3A4 [1]; mixed intermediate [21]) | Maximum rate of NADPH consumption, pure substrate (CYP3A4 [2]; at 30 µM PGS, at 200 µM CBZ) [min⁻¹] | NADPH consumption rate (CYP3A4 [2]; intermediate [20], pure PGS) [min⁻¹] | Rate of NADPH consumption at higher PGS concentrations (CYP3A4 [2]; pure PGS, above 30 µM, decreases down to this value) [min⁻¹] | PGS product formation rate in CBZ/PGS mixture at high concentration (CYP3A4 [1]; CBZ/PGS 12:1 mixture, 60 µM and higher PGS) [min⁻¹] | Maximum PGS product formation rate in CBZ/PGS mixture (CYP3A4 [1]; CBZ/PGS 12:1 mixture, reached at 18–20 µM PGS) [min⁻¹] | Factor by which PGS hydroxylation in [11] is slower than in [20] (CYP3A4 [1]; [11] versus [20]) | Hill coefficient nH (CYP3A4 [1]; fitting with the Hill equation, pure PGS) | Rate of PGS hydroxylation (CYP3A4 [1]; mixed intermediate [11]) [min⁻¹] | PGS Product Rate (CYP3A4 [1]; mixed intermediate [11]) | PGS Product Rate (CYP3A4 [1]; mixed intermediate [12]) | PGS Product Rate (CYP3A4 [1]; mixed intermediate [21])
NC(=O)N1c2ccccc2C=Cc2ccccc21 [CBZ, carbamazepine] | negligible | 3 | 1.7 | 0 (0.01) nmol/nmol/min | 4.5 | 4.5 (2.0 – 6.0) nmol/nmol/min | 11 | 11 (9.8 – 12.2) nmol/nmol/min |  |  |  |  |  |  |  |  |  |  | 
CC(=O)[C@H]1CC[C@H]2[C@@H]3CCC4=CC(=O)CC[C@]4(C)[C@H]3CC[C@]12C [PGS, progesterone] |  |  | 14.7 |  |  |  |  |  | 240 | 388 | 160 | 4 | 5 | 4 | 1.7 | 4 | 4 (3.7 – 4.2) nmol/nmol/min | 0 (0.01) nmol/nmol/min | 0 (0.02) nmol/nmol/min
